Like-named read-outs stand apart in the source and are kept apart here.
What was measured:
Experiment in all cases: biochemical
Assay type in all cases: binding
DRB1*0101 = DRB1*0101 (Homo sapiens, UniProt P01903+P01911, A100R/D57E/F55L/F60I/F76Y/I96L/L162R/M171V/P40L/Q125E/R42F/V115G/Y59C)
DRB1*0401 = DRB1*0401 (Homo sapiens, UniProt P01903+P01911, A100K/A169T/F76Y/I96L/K127E/L162R/M171V/N62H/P40V/Q125Y/R42H/S133A/S149N/S66Y/V115G/V209L/W38E)
DRB1*0405 = DRB1*0405 (Homo sapiens, UniProt P01903+P01911, A100R/A169T/D86S/F76Y/I96L/K127E/L162R/M171V/N62H/P40V/Q125Y/R42H/S133A/S149N/S66Y/V115G/V209L/W38E)
DRB1*0701 = DRB1*0701 (Homo sapiens, UniProt P01903+P01911, A100R/A102G/A103Q/D57E/D86V/E43K/F76Y/K127E/L162R/M171V/P40G/Q125H/Q99D/R33Q/R42Y/R54Q/S133A/S66F/T210M/V115G/Y107V/Y59L/Y89S)
DRB1*0802 = DRB1*0802 (Homo sapiens, UniProt P01903+P01911, A100R/A103L/A169T/F76Y/H45Y/I96F/K41T/L162R/M171V/P40S/Q125H/Q178H/Q39Y/Q99D/R218S/R42G/S66Y/V115G/W38E)
DRB1*0901 = DRB1*0901 (Homo sapiens, UniProt P01903+P01911, A100R/A103E/D57H/D86V/F55Y/F60I/F76Y/I96F/K127E/L162R/M171V/P40D/Q125H/Q99R/R33Q/R42F/S133A/S66N/T210M/V115G/W38K/Y107V/Y59G/Y89S)
DRB1*1101 = DRB1*1101 (Homo sapiens, UniProt P01903+P01911, A100R/A169T/A87E/I96F/K41T/L162R/M171V/P40S/Q125H/Q178H/Q39Y/Q99D/R42S/S66Y/T262R/V115G/W38E)
Sequence of DRB1*1101 (P01903 26-254, other chains not shown): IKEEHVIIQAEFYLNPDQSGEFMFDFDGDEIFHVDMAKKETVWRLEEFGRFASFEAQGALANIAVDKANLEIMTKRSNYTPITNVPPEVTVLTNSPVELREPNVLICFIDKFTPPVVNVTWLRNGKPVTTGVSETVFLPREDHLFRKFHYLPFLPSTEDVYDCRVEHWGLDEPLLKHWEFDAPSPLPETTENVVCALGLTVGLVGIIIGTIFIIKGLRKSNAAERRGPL

DRB1*1302 = DRB1*1302 (Homo sapiens, UniProt P01903+P01911, A100E/A169T/K41T/L162R/M171V/P40S/Q125H/Q178H/Q39Y/Q99D/R42S/S66N/T262R/V115G/W38E/Y61H)
Sequence of DRB1*1302 (P01903 26-254 limits assumed, other chains not shown): as the sequence (P01903 26-254, other chains not shown) above

DRB3*0101 = DRB3*0101 (Homo sapiens, UniProt P01903+P79483)
DRB4*0101 = DRB4*0101 (Homo sapiens, UniProt P01903+P13762, G164S)
DRB5*0101 = DRB5*0101 (Homo sapiens, UniProt P01903+Q30154)
DRB1*0301 = DRB1*0301 (Homo sapiens, UniProt P01903+P01911, A100K/A102G/A103R/A169T/F55Y/I96L/K41T/L162R/M171V/P40S/Q125H/Q178H/Q39Y/R42S/S66N/T106N/T262R/W38E/Y61H)
Sequence of DRB1*0301 (P01903 26-254, other chains not shown): as above

DRB1*0404 = DRB1*0404 (Homo sapiens, UniProt P01903+P01911, A100R/A169T/F76Y/I96L/K127E/L162R/M171V/N62H/P40V/Q125Y/R42H/S133A/S149N/S66Y/V209L/W38E)
DRB1*1501 = DRB1*1501 (Homo sapiens, UniProt P01903+P01911)
[1] = competitive inhibition of radiolabeled standard peptide, '-' distinct from ND, read-out: Binding Affinity (nM) DRB1*0901
[2] = competitive inhibition of radiolabeled standard peptide, '-' distinct from ND, read-out: Binding Affinity (nM) DRB1*1302

| Structure (SMILES) | IC50 (DRB1*0101) [µM] | IC50 (DRB1*0401) [µM] | IC50 (DRB1*0405) [µM] | IC50 (DRB1*0701) [µM] | IC50 (DRB1*0802) [µM] | IC50 (DRB1*0901; [1]) [nM] | IC50 (DRB1*1101) [µM] | IC50 (DRB1*1302; [2]) [nM] | IC50 (DRB3*0101) [µM] | IC50 (DRB4*0101) [µM] | IC50 (DRB5*0101) [µM] | IC50 (DRB1*0301) [µM] | IC50 (DRB1*0404) [µM] | IC50 (DRB1*0901) [nM] | IC50 (DRB1*1302) [nM] | IC50 (DRB1*1501) [µM] |
| --- | --- | --- | --- | --- | --- | --- | --- | --- | --- | --- | --- | --- | --- | --- | --- | --- |
| CC[C@H](C)[C@H](NC(=O)[C@H](CC(=O)O)NC(=O)[C@@H](N)CC(C)C)C(=O)N[C@@H](CCC(=O)O)C(=O)N[C@@H](CC(C)C)C(=O)N[C@@H](CCC(N)=O)C(=O)N[C@@H](CCCCN)C(=O)N[C@H](C(=O)N[C@@H](CCC(=O)O)C(=O)N[C@@H](C)C(=O)N[C@H](C(=O)N[C@@H](CCC(N)=O)C(=O)N[C@@H](CC(C)C)C(=O)N[C@@H](C)C(=O)N[C@H](C(=O)O)[C@@H](C)O)[C@@H](C)O)[C@@H](C)O [Envelope 41-55] | 0.0023 | 0.349 | 0.583 | 0.0031 | 0.0051 | 132 | 3.26 | 27 | 3.33 | 0.0065 | 0.684 |  |  |  |  |  |
| CC(C)C[C@H](NC(=O)[C@H](CCCNC(=N)N)NC(=O)[C@H](Cc1c[nH]cn1)NC(=O)[C@H](CC(=O)O)NC(=O)[C@H](CS)NC(=O)[C@H](CC(C)C)NC(=O)[C@H](CCC(N)=O)NC(=O)[C@@H](NC(=O)[C@H](Cc1ccc(O)cc1)NC(=O)[C@@H](NC(=O)[C@H](CCC(=O)O)NC(=O)[C@H](CCCNC(=N)N)NC(=O)[C@H](CC(C)C)NC(=O)[C@H](CCCCN)NC(=O)[C@@H](N)CC(C)C)C(C)C)[C@@H](C)O)C(=O)O [NS1 169-183] | 0.226 | 0.474 | 0.277 | 0.136 | 2.58 |  | 4.8 | 9960 | 0.747 | 0.878 | 1.3 | 2.36 | 0.457 |  |  |  |
| CC[C@H](C)[C@H](NC(=O)[C@H](CC(C)C)NC(=O)[C@H](CCCCN)NC(=O)CN)C(=O)N[C@@H](Cc1c[nH]cn1)C(=O)N[C@@H](CCC(=O)O)C(=O)N[C@@H](Cc1c[nH]c2ccccc12)C(=O)N[C@@H](CS)C(=O)N[C@@H](CS)C(=O)N[C@@H](CCCNC(=N)N)C(=O)N[C@@H](CO)C(=O)N[C@@H](CS)C(=O)N[C@H](C(=O)N[C@@H](CC(C)C)C(=O)N1CCC[C@H]1C(=O)O)[C@@H](C)O [NS1 305-319] | 2.6 | 1.77 | 3.5 | 1.2 | 7.2 | 11400 | 4.4 | 3190 | 1.24 | 2.04 | 6.17 | 0.841 | 4.39 |  |  |  |
| CSCC[C@H](NC(=O)[C@@H](NC(=O)[C@H](CCC(N)=O)NC(=O)[C@H](Cc1ccccc1)NC(=O)[C@H](CC(N)=O)NC(=O)[C@H](CCCCN)NC(=O)[C@@H]1CCCN1C(=O)[C@@H](N)CC(N)=O)[C@@H](C)O)C(=O)N1CCC[C@H]1C(=O)NCC(=O)N[C@H](C(=O)N[C@@H](Cc1ccccc1)C(=O)N[C@@H](CCC(N)=O)C(=O)N[C@H](C(=O)N[C@H](C(=O)O)[C@@H](C)O)[C@@H](C)O)[C@@H](C)O [NS3 105-119] | 0.049 | 0.0054 | 0.096 | 2.79 | 0.175 |  | 0.086 |  | 2.53 | 0.843 | 0.177 | 11.6 | 0.039 | 407 | 2390 |  |
| CC[C@H](C)[C@H](NC(=O)[C@H](C)N)C(=O)N[C@@H](CCC(N)=O)C(=O)N[C@@H](CCC(N)=O)C(=O)N[C@H](C(=O)N[C@@H](CCCNC(=N)N)C(=O)N[C@@H](CO)C(=O)N[C@@H](CC(C)C)C(=O)N[C@H](C(=O)NCC(=O)N[C@@H](CC(N)=O)C(=O)N[C@@H](CCC(=O)O)C(=O)N[C@@H](CCC(=O)O)C(=O)N[C@@H](Cc1ccccc1)C(=O)N[C@@H](CC(C)C)C(=O)N[C@@H](CC(=O)O)C(=O)N[C@@H](Cc1ccc(O)cc1)C(=O)O)[C@@H](C)CC)C(C)C [NS5 866-882] | 0.0043 | 0.012 |  |  |  |  | 0.421 |  | 8.09 | 2.02 |  | 0.178 |  | 66 | 543 | 0.148 |
